Values of other authors in patent publication US7304085B2, “Nitrogen-containing heteroaryl derivatives” (Genelabs Technologies, Inc., priority 2003, dated 2007).

Key:
HCV = settings: treatment of HCV, long term efficacy

Compound	patients with significant hemolysis (currently recommended doses)	teratogenicity / embryotoxicity (in vivo)	response rate (HCV)
NC(=O)c1ncn([C@@H]2O[C@H](CO)[C@@H](O)[C@H]2O)n1 [Ribavirin, 1-β-D-ribofuranosyl-1H-1,2,4-triazole-3-carboxamide]	10-20%	teratogenic and embryotoxic	
interferon			about 25%
